By IC50 is commonly meant the midpoint of a concentration-inhibition curve.

For the test, the target named is T1, recombinant human DGAT1 (Homo sapiens, UniProt O75907).
T1 construct: made in house; host or cells: Sf9 insect cells (baculovirus)
T1 sequence (O75907 1-488): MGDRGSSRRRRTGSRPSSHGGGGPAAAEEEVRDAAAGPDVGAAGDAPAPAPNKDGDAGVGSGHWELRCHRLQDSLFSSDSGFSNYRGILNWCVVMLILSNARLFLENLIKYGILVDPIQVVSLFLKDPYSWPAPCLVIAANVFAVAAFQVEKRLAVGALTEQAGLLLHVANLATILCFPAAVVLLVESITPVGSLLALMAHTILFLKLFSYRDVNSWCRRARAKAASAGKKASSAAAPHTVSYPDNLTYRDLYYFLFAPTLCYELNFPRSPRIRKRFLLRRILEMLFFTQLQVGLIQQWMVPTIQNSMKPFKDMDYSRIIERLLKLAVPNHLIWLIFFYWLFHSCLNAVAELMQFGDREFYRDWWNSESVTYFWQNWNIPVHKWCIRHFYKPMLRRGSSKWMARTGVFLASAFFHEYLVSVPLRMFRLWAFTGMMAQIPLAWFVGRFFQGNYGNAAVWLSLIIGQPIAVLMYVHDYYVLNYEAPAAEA
The test is described as follows: DGAT1 enzyme assay. The class given is biochemical. Particulars: membranes from Sf9 insect cells expressing recombinant human DGAT1; 25 μM 2-monooleoyl-glycerol, 25 μM [3H]-stearoyl-CoA, pH 7.4, 30 min, 25° C., SPA. How it is done: DGAT1 enzyme assays were conducted using membranes isolated from Sf9 insect cells expressing the recombinant human DGAT1 cDNA. The assays were conducted in 384-well plates with total volume of 25 μl at 25° C. In each assay, 300 ng of recombinant human DGAT1 membrane was incubated with 25 μM of 2-monooleoyl-glycerol and 25 μM of [^3H]-stearoyl-CoA in 100 mM potassium phosphate (pH 7.4) for 30 min with various concentrations of compounds delivered in DMSO. The assay was terminated by the addition of 30 μl of Stopping Solution [50 mM HEPES, 5 mg/ml Yittrium Oxide (YOX) Polylysine SPA beads, 3.33 mg/ml Fraction V BSA, 200 μM Mercuric chloride]. The signal was measured using LEADSEEKER^SM for 5 minutes. To calculate the degree of inhibition, the zero level of enzyme activity (blank) was defined by the above assay using Sf9 cell membrane uninfected with baculovirus and the 100% level of DGAT1 enzyme activity was defined by human DGAT1 assay with the vehicle DMSO. The IC50 values of inhibitors were determined by Excel-fit.
As to `CC(C)[C@H](Cc1nnc2cc(-c3ccc(Nc4nc5ccc(Cl)cc5s4)cc3)ccn12)C(=O)O` [Example 1, (S)-2-((7-(4-(6-Chlorobenzo[d]thiazol-2-ylamino)phenyl)-[1,2,4]triazolo[4,3-a]pyridin-3-yl)methyl)-3-methylbutanoic acid], the IC50 came out at 10 nM. Take `COC(=O)[C@@H](Cc1nnc2cc(-c3ccc(Nc4nc5ccc(Cl)cc5s4)cc3)ccn12)C(C)C` [Example 1F, (S)-Methyl 2-((7-(4-(6-chlorobenzo[d]thiazol-2-ylamino)phenyl)-[1,2,4]triazolo[4,3-a]pyridin-3-yl)methyl)-3-methylbutanoate]: the IC50 was found to be 7200 nM. Under `CC(C)[C@@H](Cc1nnc2cc(-c3ccc(Nc4nc5ccc(Cl)cc5s4)cc3)ccn12)C(=O)O` [Example 2, (R)-2-((7-(4-(6-Chlorobenzo[d]thiazol-2-ylamino)phenyl)-[1,2,4]triazolo[4,3-a]pyridin-3-yl)methyl)-3-methylbutanoic acid] stands 160 nM.

Consider `COC(=O)[C@H](Cc1nnc2cc(-c3ccc(Nc4nc5ccc(Cl)cc5s4)cc3)ccn12)C(C)C` [Example 2B, (R)-Methyl 2-((7-(4-(6-chlorobenzo[d]thiazol-2-ylamino)phenyl)-[1,2,4]triazolo[4,3-a]pyridin-3-yl)methyl)-3-methylbutanoate], for which the IC50 was determined as 15000 nM. For `CC(C)C[C@H](Cc1nnc2cc(-c3ccc(Nc4nc5ccc(Cl)cc5s4)cc3)ccn12)C(=O)O` [Example 3, (R)-2-((7-(4-(6-Chlorobenzo[d]thiazol-2-ylamino)phenyl)-[1,2,4]triazolo[4,3-a]pyridin-3-yl)methyl)-4-methylpentanoic acid], the IC50 was determined as 320 nM. The same measure for `COC(=O)[C@@H](Cc1nnc2cc(-c3ccc(Nc4nc5ccc(Cl)cc5s4)cc3)ccn12)CC(C)C` [Example 3B, (R)-Methyl 2-((7-(4-(6-chlorobenzo[d]thiazol-2-ylamino)phenyl)-[1,2,4]triazolo[4,3-a]pyridin-3-yl)methyl)-4-methylpentanoate]: 25000 nM; for `CC(C)C[C@@H](Cc1nnc2cc(-c3ccc(Nc4nc5ccc(Cl)cc5s4)cc3)ccn12)C(=O)O` [Example 4, (S)-2-((7-(4-(6-Chlorobenzo[d]thiazol-2-ylamino)phenyl)-[1,2,4]triazolo[4,3-a]pyridin-3-yl)methyl)-4-methylpentanoic acid]: 2800 nM; for `COC(=O)[C@H](Cc1nnc2cc(-c3ccc(Nc4nc5ccc(Cl)cc5s4)cc3)ccn12)CC(C)C` [Example 4B, (S)-Methyl 2-((7-(4-(6-chlorobenzo[d]thiazol-2-ylamino)phenyl)-[1,2,4]triazolo[4,3-a]pyridin-3-yl)methyl)-4-methylpentanoate]: 50000 nM. Under `CCCC[C@H](Cc1nnc2cc(-c3ccc(Nc4nc5ccc(Cl)cc5s4)cc3)ccn12)C(=O)O` [Example 5, (R)-2-((7-(4-(6-Chlorobenzo[d]thiazol-2-ylamino)phenyl)-[1,2,4]triazolo[4,3-a]pyridin-3-yl)methyl)hexanoic acid] stands 200 nM; under `O=C(O)[C@@H](Cc1nnc2cc(-c3ccc(Nc4nc5ccc(Cl)cc5s4)cc3)ccn12)CC1CCCCC1` [Example 6, (R)-3-(7-(4-(6-Chlorobenzo[d]thiazol-2-ylamino)phenyl)-[1,2,4]triazolo[4,3-a]pyridin-3-yl)-2-(cyclohexylmethyl)propanoic acid], 3600 nM.

With `O=C(O)[C@@H](Cc1nnc2cc(-c3ccc(Nc4nc5ccc(Cl)cc5s4)cc3)ccn12)C1CCCCC1` [Example 7, (S)-3-(7-(4-(6-Chlorobenzo[d]thiazol-2-ylamino)phenyl)-[1,2,4]triazolo[4,3-a]pyridin-3-yl)-2-cyclohexylpropanoic acid], the IC50 was found to be 2800 nM. The same measure for `O=C(O)CCc1nnc2cc(-c3ccc(Nc4nc5ccc(Cl)cc5s4)cc3)ccn12` [Example 8, 3-(7-(4-(6-Chlorobenzo[d]thiazol-2-ylamino)phenyl)-[1,2,4]triazolo[4,3-a]pyridin-3-yl)propanoic acid]: 490 nM.

The record behind these values is patent publication US8394823B2, “Triazolopyridine compounds useful as DGAT1 inhibitors” (Bristol-Myers Squibb Company, priority 2008, dated 2013).
